In US6184388A, “Substituted aminocycloalkylpyrrolidine derivatives and cis-substituted aminocycloalkylpyrrolidine derivatives” (Daiichi Pharmaceutical Co., Ltd., priority 1995, dated 2001):
Converted amounts (≈) assume the structure as drawn. Counter-ions that a name gives are not always drawn.

Legend:
[1] = tested on: Slc:ddy five week male mice; test: acute toxicity, intravenous, mice; type: in vivo; settings: for acute toxicity result compared with the table above: stated in words
Description: A solution of 5-amino-7-[4-(R)-(1-aminocyclopropyl)-3-(S)-fluoro-1-pyrrolidinyl]-6-fluoro-1-[2-(S)-fluoro-1-(R)-cyclopropyl]-1,4-dihydro-8-methyl-4-oxoquinoline-3-carboxylic acid (abbreviated as cis) hydrochloride of Example 15 or 5-amino-7-[4-(R)-(1-aminocyclopropyl)-3-(R)-fluoro-1-pyrrolidinyl]-6-fluoro-1-[2-(S)-fluoro-1-(R)-cyclopropyl]-1,4-dihydro-8-methyl-4-oxoquinoline-3-carboxylic acid (abbreviated as trans) hydrochloride in distilled water for injection was administered intravenously to Slc:ddy five week male mice (five mice per group) and the symptoms are observed.

[2] = tested on: Ps. maltophilia, IID-1275; test: antimicrobial activity (MIC), standard method of the Japan Society of Chemotherapy; type: cell-based; settings: for MIC: Stenotrophomonas maltophilia, IID1275, IID-1275 (Table 5: X. maltophilia, IID-1275), read-out: minimum inhibitory concentration (MIC)
Description: (§1) Examples of the first and second aspects of the present invention are given below by way of illustration and not by way of limitation. In this regard, the antibacterial and antimicrobial activities of the compounds of interest were measured in accordance with the standard method specified by the Japan Society of Chemotherapy. The results are shown in Tables 1 to 5 as a minimum inhibitory concentration (MIC, μg/ml). Unless otherwise indicated, all percents (%) are by weight.

[3] = tested on: E. coli, NIHJ; test: as above; type: cell-based; settings: Escherichia coli, read-out: minimum inhibitory concentration (MIC)
Description: as §1

[4] = 150 mg/kg, *: died immediately after administration, test stopped when second mouse died

Row | Compound | acute toxicity result compared with the table above ([1]; 150 mg/kg) | MIC [2] [µg/mL] | further results
1 | C[C@H]1COc2c(N3C[C@@H](F)[C@@H](C4(N)CC4)C3)c(F)cc3c(=O)c(C(=O)O)cn1c23 [Example 17, 10-[4-(R)-(1-Aminocyclopropyl)-3-(S)-fluoro-1-pyrrolidinyl]-9-fluoro-2,3-dihydro-3-(S)-methyl-7-oxo-7H-pyrido[1,2,3-de][1,4]benzoxazine-6-carboxylic acid] | same result | – | –
2 | COc1c(N2C[C@@H](F)[C@@H](C3(N)CC3)C2)c(F)c(N)c2c(=O)c(C(=O)O)cn([C@@H]3C[C@@H]3F)c12 [Example 16, 5-Amino-7-[4-(R)-(1-aminocyclopropyl)-3-(S)-fluoro-1-pyrrolidinyl]-6-fluoro-1-[2-(S)-fluoro-1-(R)-cyclopropyl]-1,4-dihydro-8-methoxy-4-oxoquinoline-3-carboxylic acid] | same result | 0.2 (≈ 0.442 µM) | –
3 | Cc1c(N2C[C@@H](CO)[C@@H](C3(N)CC3)C2)c(F)c(N)c2c(=O)c(C(=O)O)cn(C3CC3)c12 (relative stereo) [Example 14, 5-Amino-7-[cis-4-(1-aminocyclopropyl)-3-hydroxymethyl-1-pyrrolidinyl]-1-cyclopropyl-6-fluoro-1,4-dihydro-8-methyl-4-oxoguinoline-3-carboxylic acid] | same result | – | –
4 | Cc1c(N2C[C@@H](F)[C@@H](C3(N)CCC3)C2)c(F)c(N)c2c(=O)c(C(=O)O)cn([C@@H]3C[C@@H]3F)c12 (single isomer, unassigned; isomer b) [Example 13] | same result | – | minimum inhibitory concentration (MIC) ([2]; IID-1275 (Table 5: X. maltophilia, IID-1275)): 0.20 µg/mL (≈ 0.444 µM)
5 | COc1c(N2C[C@@H](F)[C@@H](C3(N)CC3)C2)c(F)cc2c(=O)c(C(=O)O)cn([C@@H]3C[C@@H]3F)c12 [Example 12, 7-[4-(R)-(1-Aminocyclopropyl)-3-(S)-fluoro-1-pyrrolidinyl]-6-fluoro-1-[2-(S)-fluoro-1-(R)-cyclopropyl]-1,4-dihydro-8-methoxy-4-oxoguinoline-3-carboxylic acid] | same result | – | MIC [3]: ≤ 0.013 µg/mL
6 | Cc1c(N2C[C@@H](F)[C@@H](C3(N)CC3)C2)c(F)c(N)c2c(=O)c(C(=O)O)cn([C@@H]3C[C@@H]3F)c12 [Example 15, 5-Amino-7-[4-(R)-(1-aminocyclopropyl)-3-(S)-fluoro-1-pyrrolidinyl]-6-fluoro-1-[2-(S)-fluoro-1-(R)-cycloproyl]-1,4-dihydro-8-methyl-4-oxoguinoline-3-carboxylic acid hydrochloride] | – | 0.05 | Number of death [1, 4]: 0/5
7 | C[C@H]1COc2c(N3C[C@@H](F)[C@@H](C4(N)CC4)C3)c(F)cc3c(=O)c(C(=O)O)cn1c23.Cl [Example 19, 10-[4-(R)-(1-Aminocyclopropyl)-3-(S)-fluoro-1-pyrrolidinyl]-9-fluoro-2,3-dihydro-3-(S)-methyl-7-oxo-7H-pyrido[1,2,3-de][1,4]benzoxazine-6-carboxylic acid hydrochloride] | – | 0.39 | –
8 | Cc1c(N2C[C@H](F)[C@@H](C3(N)CC3)C2)c(F)c(N)c2c(=O)c(C(=O)O)cn([C@@H]3C[C@@H]3F)c12 [Example 5, 5-Amino-7-[4-(R)-(1-aminocyclopropyl)-3-(R)-fluoro-1-pyrrolidinyl]-6-fluoro-1-[2-(S)-fluoro-1-(R)-cyclopropyl]-1,4-dihydro-8-methyl-4-oxoquinoline-3-carboxylic acid hydrochloride] | – | – | Number of death ([1]; 50 mg/kg): 0/5; Number of death ([1]; 100 mg/kg, *: died immediately after administration, test stopped when second mouse died): 2/2; Number of death [1, 4]: 2/2
9 | C[C@H]1COc2c(N3C[C@@H](F)[C@@H](C4(N)CC4)C3)c(F)c(N)c3c(=O)c(C(=O)O)cn1c23 [Example 21, 8-Amino-10-[4-(R)-(1-aminocyclopropyl)-3-(S)-fluoro-1-pyrrolidinyl]-9-fluoro-2,3-dihydro-3-(S)-methyl-7-oxo-7H-pyrido[1,2,3]-de[1,4]benzoxazine-6-carboxylic acid] | same result | 0.39 (≈ 0.928 µM) | –
